Results reported in article PMC4611054, “Quantitative time-resolved analysis reveals intricate, differential regulation of standard- and immuno-proteasomes” (eLife, 2015).
Residues, ends and D or L forms follow the SMILES beside them.

Tests used:
Assay type in all cases: biochemical
[1] = target: T1, 20S mouse liver proteasome (Mus musculus, UniProt O55234+P70195+Q60692); test: Bz-VGR-MCA hydrolysis with and without peptide; conditions: activator; allosteric non-catalytic modifier site; terminal groups of LLVY not told; pH 7.2, 37 °C
T1 construct: gene Psmb5; native 20S core particle purified from mouse liver; alpha7beta7beta7alpha7; with Proteasome subunit beta type-1; Proteasome subunit beta type-2; Proteasome subunit beta type-3; Proteasome subunit beta type-4; Proteasome subunit alpha type-1; Proteasome subunit alpha type-2; Proteasome subunit alpha type-3; Proteasome subunit alpha type-4; Proteasome subunit alpha type-5; Proteasome subunit alpha type-6; Proteasome subunit alpha type-7

[2] = target: T1, 20S mouse liver proteasome; test: fluorogenic peptide hydrolysis, initial velocities, ABC-SMC fit of Michaelis-Menten and substrate-inhibition models; conditions: TEAD buffer pH 7.2, 37 °C, authors state the models fit poorly
[3] = target: T2, human 20S s-proteasome (T2 proteasome) (Homo sapiens, UniProt P28072+P28074+Q99436); test: fluorogenic peptide hydrolysis time courses, Bayesian fit of compartment model; conditions: TEAD buffer pH 7.2, 37 °C, 20-640 μM substrate, model-inferred active site affinity
T2 construct: gene PSMB5; native 20S core particle purified from T2 cells; alpha7beta7beta7alpha7; with Proteasome subunit beta type-1; Proteasome subunit beta type-2; Proteasome subunit beta type-3; Proteasome subunit beta type-4; Proteasome subunit alpha type-1; Proteasome subunit alpha type-2; Proteasome subunit alpha type-3; Proteasome subunit alpha type-4; Proteasome subunit alpha type-5; Proteasome subunit alpha type-6; Proteasome subunit alpha type-7

Cc1cc(=O)oc2cc(NC(=O)[C@H](Cc3ccc(O)cc3)NC(=O)[C@@H](NC(=O)[C@H](CC(C)C)NC(=O)[C@H](CC(C)C)NC(=O)CCC(=O)O)C(C)C)ccc12 [LLVY peptide] (HELM PEPTIDE1{[O=C(O)CCC(=O)[*:2]].L.L.V.Y.[Cc1cc(=O)oc2cc(N[*:1])ccc12]}$$$$V2.0)
Bz-VGR-MCA hydrolysis with and without peptide [1]: degradation rate of the substrate Bz-VGR-MCA increases in the presence of the peptide LLVY

Cc1cc(=O)oc2cc(NC(=O)[C@H](CCC(=O)O)NC(=O)[C@H](CC(C)C)NC(=O)[C@H](CC(C)C)NC(=O)OCc3ccccc3)ccc12 [Z-LLE-MCA] (HELM PEPTIDE1{[O=C(OCc1ccccc1)[*:2]].L.L.E.[Cc1cc(=O)oc2cc(N[*:1])ccc12]}$$$$V2.0)
KM ([2]; site mainly beta1/beta1i): The substrates Suc-LLVY-MCA, Bz-VGR-MCA and Z-LLE-MCA were hydrolysed by mouse proteasome | KaS ([3]; site mainly beta1): for i-proteasomes we observe lower affinity to the active site (KaS)

Cc1cc(=O)oc2cc(NC(=O)[C@H](Cc3ccc(O)cc3)NC(=O)[C@@H](NC(=O)[C@H](CC(C)C)NC(=O)[C@H](CC(C)C)NC(=O)CCC(=O)O)C(C)C)ccc12 [Suc-LLVY-MCA] (HELM PEPTIDE1{[O=C(O)CCC(=O)[*:2]].L.L.V.Y.[Cc1cc(=O)oc2cc(N[*:1])ccc12]}$$$$V2.0)
KM ([2]; site mainly beta5/beta5i): Scatterplot of the kinetic parameters vmax and KM from the inferred posterior parameter distributions | KaS ([3]; site mainly beta5): we observe a higher active site affinity (KaS) with a lower Hill coefficient (na)
